Article PMC5420810 (Annals of Clinical and Translational Neurology, 2017)

Assays:
[1] = tested on: Dravet syndrome patients; test: Retrospective chart review of anticonvulsant responses in Dravet syndrome; type: in vivo, human; details: for Effectiveness in Dravet syndrome cohort / Patients with effective response with tolerable side effects: patient or parent‐reported
[2] = tested on: Scn1a +/− mice; test: Hyperthermia‐induced seizures; type: in vivo, mouse; details: for Effect on hyperthermia‐induced seizure response: single‐point ip doses targeting human therapeutic range (Table 1)
[3] = tested on: Scn1a +/− mice; test: Survival analysis; type: in vivo, mouse; details: for Mice surviving through P30: naïve mice, chow treatment from P18, untreated 67% (14/21)
[4] = Plasma drug concentration after subchronic oral treatment in chow; details: for Subchronic treatment plasma concentration: mg/kg chow: carbamazepine 7500, clobazam 160 (NCLB = metabolite after clobazam), lamotrigine 125, levetiracetam 1350, phenobarbital 300, stiripentol 4000, topiramate 850, valproic acid 4500, mean ± SEM, n = 5–8
[5] = tested on: Scn1a +/− mice; test: Spontaneous seizure; type: in vivo, mouse; details: for Effect on spontaneous GTCS frequency: subchronic treatment in chow, naïve mice, 60 h recording
[6] = tested on: Scn1a +/− mice; test: Spontaneous GTCS following hyperthermic seizure priming; type: in vivo, mouse; details: hyperthermia‐primed, clobazam 160 mg/kg chow, 60 h P19–P21 (4/16); untreated 61%
[7] = Pharmacokinetic analysis of clobazam and stiripentol after a single ip injection; type: in vivo, Wild‐type and Scn1a +/− mice
[8] = single ip 10 mg/kg clobazam, analyte = labelled substance

Compound: O=C1NC(=O)C(c2ccccc2)(c2ccccc2)N1 [Phenytoin]
- Patients with significant worsening of seizures ([1]; Dravet syndrome cohort): approximately 50%
- Patients with significant worsening of seizures (patients/patients trialed) ([1]; Dravet syndrome cohort): 15/31
- Effect on hyperthermia‐induced seizure response [2]: no effect

Compound: NC(=O)N1c2ccccc2CC(=O)c2ccccc21 [oxcarbazepine]
- Patients with significant worsening of seizures ([1]; Dravet syndrome cohort): approximately 50%
- Patients with significant worsening of seizures (patients/patients trialed) ([1]; Dravet syndrome cohort): 28/50

Compound: NS(=O)(=O)Cc1noc2ccccc12 [Zonisamide]
- Effectiveness in Dravet syndrome cohort [1]: limited effectiveness

Compound: CC1(C)O[C@@H]2[C@@H](CO[C@@]3(COS(N)(=O)=O)OC(C)(C)O[C@@H]23)O1 [Topiramate]
- Patients with effective response with tolerable side effects ([1]; Dravet syndrome cohort): less than 45%
- Effect on hyperthermia‐induced seizure response [2]: no effect
- Mice surviving through P30 [3]: 100%

Compound: CN1C(=O)CC(=O)N(c2ccccc2)c2cc(Cl)ccc21 [Clobazam]
- Cases with seizure reduction ([1]; Dravet syndrome cohort): ~75%
- Patients with effective response with tolerable side effects ([1]; Dravet syndrome cohort): > 50%
- Protection from hyperthermia‐induced GTCS ([2]; clobazam 0.1 mg/kg ip, P14–P16): 37.5%
- Protection from hyperthermia‐induced GTCS ([2]; clobazam 1 mg/kg ip): 50%
- Protection from hyperthermia‐induced GTCS ([2]; clobazam 10 mg/kg ip): Complete protection
- Subchronic treatment plasma concentration [4]: BQL
- Effect on spontaneous GTCS frequency [5]: did not result in a statistically significant change
- Mice exhibiting spontaneous GTCS [6]: 25%
- AUC(0-inf) ([7]; mouse, plasma, ip, 10 mg/kg): 2.58 µg·h/mL
- half-life ([7]; mouse, plasma, ip, 10 mg/kg): 0.633 h

Compound: CC(C)(C)C(O)/C=C/c1ccc2c(c1)OCO2 (stereo not shown) [Stiripentol]
- Patients with effective response with tolerable side effects ([1]; Dravet syndrome cohort): > 50%
- Effect on hyperthermia‐induced seizure response [2]: no effect
- Effect on hyperthermia seizure threshold temperature vs vehicle ([2]; stiripentol 100 mg/kg ip): increased threshold temperature
- Protected from hyperthermia‐induced GTCS ([2]; stiripentol 300 mg/kg ip (3/13)): 23%
- AUC(0-inf) ([7]; mouse, plasma, ip, 100 mg/kg): 210 µg·h/mL
- Cmax ([7]; mouse, plasma, ip, 100 mg/kg): 46000 ng/mL
- half-life ([7]; mouse, plasma, ip, 100 mg/kg): 2.82 h
- tmax ([7]; mouse, plasma, ip, 100 mg/kg): 1.5 h

Compound: O=C1CN=C(c2ccccc2Cl)c2cc([N+](=O)[O-])ccc2N1 [clonazepam]
- Patients with effective response with tolerable side effects ([1]; Dravet syndrome cohort): less than 45%

Compound: O=C1CC(=O)N(c2ccccc2)c2cc(Cl)ccc2N1 [NCLB, N‐desmethylclobazam]
- Subchronic treatment plasma concentration [4]: 0.6 ± 0.03 µg/mL
- Cmax in plasma [7, 8]: 3100 ng/mL
- tmax [7, 8]: 1.5 h

Compound: Nc1nnc(-c2cccc(Cl)c2Cl)c(N)n1 [Lamotrigine]
- Patients with significant worsening of seizures ([1]; Dravet syndrome cohort): approximately 50%
- Patients with significant worsening of seizures (patients/patients trialed) ([1]; Dravet syndrome cohort): 25/50
- Mice that experienced a hyperthermia‐induced GTCS ([2]; lamotrigine 20 mg/kg ip, 12 mice, vehicle 10 of 12): 12 mice
- Threshold temperature for hyperthermia‐induced GTCS ([2]; lamotrigine 20 mg/kg ip, vehicle C 41.8 ± 0.1): 40.5 ± 0.3 °C
- Effect on hyperthermia‐induced seizure response [2]: significantly worsened
- Survival through P42 (6‐week survival) ([3]; lamotrigine chow from P18, untreated 68% (15/22)): completely prevented lethality
- Seizures that escalated to tonic hindlimb extension ([5]; naïve cohort, lamotrigine chow, untreated 33% (17/52)): None of the 155 seizures
- Effect on spontaneous GTCS frequency [5]: significantly worsened

Compound: CCCC(CCC)C(=O)O [Valproic Acid]
- Patients with effective response with tolerable side effects ([1]; Dravet syndrome cohort): > 50%
- Effect on hyperthermia‐induced seizure response [2]: no effect
- Protection from hyperthermia‐induced GTCS ([2]; valproic acid 100 mg/kg ip): 30%
- Protection from hyperthermia‐induced GTCS ([2]; valproic acid 200 mg/kg ip): 50%
- Protection from hyperthermia‐induced GTCS ([2]; valproic acid 300 mg/kg ip): 100%
- Effect on spontaneous GTCS frequency [5]: did not result in a statistically significant change

Compound: CC[C@@H](C(N)=O)N1CCCC1=O [Levetiracetam]
- Effectiveness in Dravet syndrome cohort [1]: limited effectiveness
- Mice surviving through P30 [3]: 100%
- Effect on spontaneous GTCS frequency [5]: did not result in a statistically significant change

Compound: CCC1(c2ccccc2)C(=O)NC(=O)NC1=O [Phenobarbital]
- Effectiveness in Dravet syndrome cohort [1]: limited effectiveness
- concentration at 24 h ([4]; mouse, plasma, oral, 300 mg per kg of chow, Plasma level, hyperthermia‐primed mice, phenobarbital chow, 24 h post seizure induction, primed): 17800 ± 3200 ng/mL
- Effect on spontaneous GTCS frequency [5]: did not result in a statistically significant change

Compound: NC(=O)N1c2ccccc2C=Cc2ccccc21 [Carbamazepine]
- Patients with significant worsening of seizures ([1]; Dravet syndrome cohort): approximately 50%
- Patients with significant worsening of seizures (patients/patients trialed) ([1]; Dravet syndrome cohort): 16/32
- Effect on hyperthermia‐induced seizure response [2]: no effect
- Mice surviving through P30 [3]: 100%
